Measurements: patent US11753433B2, “Methods of synthesizing substituted purine compounds” (Epizyme, Inc., priority 2013, dated 2023)

How the values were obtained:
[1] = Dynamic vapor sorption (DVS) hygroscopicity; assay type: physicochemical; settings: at 80% RH, 25° C.
Experimental: (peak temperature) which is accompanied by 5.9 wt % weight loss up to ˜150° C. in the TGA curve (FIG. 3). […] A solid is considered moderately hygroscopic when water uptake at 25° C./80% RH is between 2-15 wt % based on criteria of European Pharmacopeia. […] Form B of EP-1 trihydrate (x is 3) is a trihydrate as confirmed by single crystal analysis. The experimental XRPD pattern of Form B matches well with the simulated one from single crystal data (FIG. 6). This was also confirmed by DSC and TGA data (FIG. 7 and FIG. 8, respectively). DSC data indicates Form B dehydrates at ˜132° C. […] Form B is slightly hygroscopic as evidenced by a weight change of ˜0.3% between 0% and 95% RH (FIG. 9), (data collection was programmed from 95% RH-0% RH-95% RH at a step size of 10% RH at 25° C.).

[2] = Solubility in Simulated Gastric Fluid (SGF) at 37° C.; assay type: physicochemical; settings: for Resulting Solid: XRPD; for Solubility: calculated using free base content
Experimental: To study if Form A and Form B would perform differently in stomach, the solubilities of Form A and Form B were measured in Simulated Gastric Fluid (SGF, see below for SGF preparation) at 37° C. […] The remaining solids after each time point were subject to XRPD analysis. […] Weigh appropriate amount of hydrochloride (HCl) and sodium chloride (NaCl) into a 1-L flask followed by addition of 1-L deionized water. The mixture was stirred until all solids are dissolved. Check pH value with a pH-meter and adjust the pH to 1.8 with HCl (1N) or NaOH (1N).

What does the source list for `CC(C)N(CC1O[C@@H](n2cnc3c(N)ncnc32)[C@H](O)[C@@H]1O)C1CC(CCc2nc3cc(C(C)(C)C)ccc3[nH]2)C1` (stereo partly drawn) [Form A, (2R,3R,4S,5R)-2-(6-amino-9H-purin-9-yl)-5-((((1r,3S)-3-(2-(5-(tert-butyl)-1H-benzo[d]imidazol-2-yl)ethyl)cyclobutyl)(isopropyl)amino)methyl)tetrahydrofuran-3,4-diol hydrate]?
water adsorption measured by dynamic vapor sorption (DVS) [1]: ~5.8 wt %; Final pH [2]: 5.1; time of conversion of Form A to Form B in SGF [2]: ≤ 15 min; Resulting Solid ([2]; 15 min): Type B; Solubility ([2]; 15 min): 5.4 mg/mL; Resulting Solid ([2]; 30 min): Type B; Solubility ([2]; 30 min): 5.5 mg/mL; Resulting Solid ([2]; 60 min): Type B; Solubility ([2]; 60 min): 5.3 mg/mL
